Values of other authors as cited in patent US8293290B2, “Annatto extract compositions, including geranyl geraniols and methods of use” (American River Nutrition, Inc., priority 2003, dated 2012).

Experiments:
[1] = exogenous oral supplementation
[2] = system: prostate cancer patients; settings: after one year of CoQ10 supplementation
[3] = system: cytochrome P450 enzymes
[4] = system: untransformed cells or normal cells
[5] = target: T1, PPARα (Homo sapiens, UniProt Q07869); settings: at the hepatocytes
T1 construct: host or cells: HepG2 hepatocytes (from the cited title only)
T1 sequence (Q07869 1-468): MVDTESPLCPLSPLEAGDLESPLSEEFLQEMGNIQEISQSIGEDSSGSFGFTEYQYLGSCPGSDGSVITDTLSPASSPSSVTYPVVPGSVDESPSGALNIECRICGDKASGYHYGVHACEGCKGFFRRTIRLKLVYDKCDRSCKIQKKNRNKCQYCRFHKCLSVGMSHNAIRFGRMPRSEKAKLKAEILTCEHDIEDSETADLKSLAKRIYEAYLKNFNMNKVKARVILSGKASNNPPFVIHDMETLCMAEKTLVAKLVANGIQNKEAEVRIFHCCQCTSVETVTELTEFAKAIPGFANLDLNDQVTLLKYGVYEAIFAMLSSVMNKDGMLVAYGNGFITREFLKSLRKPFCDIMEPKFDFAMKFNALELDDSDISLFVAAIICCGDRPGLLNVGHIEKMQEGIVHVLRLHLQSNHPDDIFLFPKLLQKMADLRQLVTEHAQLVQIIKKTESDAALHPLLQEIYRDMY

[6] = target: T2, PPARγ (Mus musculus, UniProt P37238); settings: at the adipocytes
T2 construct: host or cells: 3T3-L1 adipocytes (from the cited title only)
T2 sequence (P37238 1-505): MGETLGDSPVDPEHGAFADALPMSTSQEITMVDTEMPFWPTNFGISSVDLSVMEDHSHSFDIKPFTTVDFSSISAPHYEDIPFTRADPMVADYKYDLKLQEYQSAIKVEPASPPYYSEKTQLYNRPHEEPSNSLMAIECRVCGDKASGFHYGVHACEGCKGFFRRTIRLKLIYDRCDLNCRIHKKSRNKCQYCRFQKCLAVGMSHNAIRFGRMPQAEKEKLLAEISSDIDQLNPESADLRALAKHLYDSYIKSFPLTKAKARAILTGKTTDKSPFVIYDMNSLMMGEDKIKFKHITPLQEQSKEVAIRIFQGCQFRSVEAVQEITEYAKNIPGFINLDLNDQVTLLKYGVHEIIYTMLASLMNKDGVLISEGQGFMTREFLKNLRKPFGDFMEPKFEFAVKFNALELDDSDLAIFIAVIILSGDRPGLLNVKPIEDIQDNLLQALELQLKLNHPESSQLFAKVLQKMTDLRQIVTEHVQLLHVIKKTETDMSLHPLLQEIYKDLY

Structure (SMILES)	fraction of supplemental CoQ10 absorbed [1]	decrease of prostate mass [2]	decrease of prostate specific antigen (PSA) [2]	inhibition of cytochrome P450 enzymes (incl. CYP3A4) [3]	cytotoxicity (cell rounding, indicator of myotoxicity) [4]	toxicity to untransformed cells or normal cells [4]	PPARα activation [5]	PPARγ activation [6]
COC1=C(OC)C(=O)C(C/C=C(\C)CC/C=C(\C)CC/C=C(\C)CC/C=C(\C)CC/C=C(\C)CC/C=C(\C)CC/C=C(\C)CC/C=C(\C)CC/C=C(\C)CCC=C(C)C)=C(C)C1=O [CoQ10, coenzyme Q10]	less than 5%	47%	71%					
CC(C)=CCC/C(C)=C/CC/C(C)=C/CC/C(C)=C/CO [GG, Geranyl geraniol]				does not inhibit	not cytotoxic	not toxic	activates	activates
